Data from ChEMBL document CHEMBL1909046, “DrugMatrix in vitro pharmacology data”.
*1 amine or outer side, *2 acyl side, *3 side chain or, on linkers, in order; H or OH if unused. Where a SMILES comes first, the peptide text is derived from it. Bridges are numbered along the chain shown (N, C = ends). Roman numbers before positions name the chains, in order. [ ]: non-standard residue; d: D form. Actinocin(1to9) = Cc1c2oc3c(C)ccc(C(=O)[*:2])c3nc-2c(C(=O)[*:1])c(N)c1=O; NMeV = CN[C@H](C(=O)O)C(C)C; Sar = CNCC(=O)O

How the values were obtained:
[1] = target: Epidermal growth factor receptor (Homo sapiens, UniProt P00533); experiment: DRUGMATRIX: Protein Tyrosine Kinase, EGF Receptor enzyme inhibition (substrate: Poly(Glu:Tyr)); format: cell-based, Insect cells; details: Not Active = under 50% inhibition at 10 µM
[2] = target: Protein kinase C alpha type (Homo sapiens, UniProt P17252); format: cell-based; details: sf9;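 note: inhibition of PKCalpha kinase activity measured in an enzyme assay with histone as the phosphorylation substrate; in other assays of this panel Not Active means under 50% inhibition at 10 µM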
[3] = target: Insulin receptor (Rattus norvegicus, UniProt P15127); format: cell membranes, Wistar, Liver, Membrane; note: in other assays of this panel Not Active means under 50% inhibition at 10 µM
[4] = target: Matrix metalloproteinase-9 (Homo sapiens, UniProt P14780); experiment: biochemical; format: cell-based;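 note: inhibition of isolated MMP-9 enzyme activity toward a synthetic peptide substrate, from the DrugMatrix protease screening panel; in other assays of this panel Not Active means under 50% inhibition at 10 µM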
[5] = target: Sodium-dependent dopamine transporter (Homo sapiens, UniProt Q01959); experiment: DRUGMATRIX: Dopamine Transporter radioligand binding (ligand: [125I] RTI-55); format: cell membranes, CHO-K1, Membrane; details: Not Active = under 50% inhibition at 10 µM
[6] = target: Beta-2 adrenergic receptor (Homo sapiens, UniProt P07550); experiment: DRUGMATRIX: Adrenergic beta2 radioligand binding (ligand: [3H] CGP-12177); format: cell membranes, Membrane; details: cho; Not Active = under 50% inhibition at 10 µM

Sequence of Sodium-dependent dopamine transporter (Q01959 whole entry): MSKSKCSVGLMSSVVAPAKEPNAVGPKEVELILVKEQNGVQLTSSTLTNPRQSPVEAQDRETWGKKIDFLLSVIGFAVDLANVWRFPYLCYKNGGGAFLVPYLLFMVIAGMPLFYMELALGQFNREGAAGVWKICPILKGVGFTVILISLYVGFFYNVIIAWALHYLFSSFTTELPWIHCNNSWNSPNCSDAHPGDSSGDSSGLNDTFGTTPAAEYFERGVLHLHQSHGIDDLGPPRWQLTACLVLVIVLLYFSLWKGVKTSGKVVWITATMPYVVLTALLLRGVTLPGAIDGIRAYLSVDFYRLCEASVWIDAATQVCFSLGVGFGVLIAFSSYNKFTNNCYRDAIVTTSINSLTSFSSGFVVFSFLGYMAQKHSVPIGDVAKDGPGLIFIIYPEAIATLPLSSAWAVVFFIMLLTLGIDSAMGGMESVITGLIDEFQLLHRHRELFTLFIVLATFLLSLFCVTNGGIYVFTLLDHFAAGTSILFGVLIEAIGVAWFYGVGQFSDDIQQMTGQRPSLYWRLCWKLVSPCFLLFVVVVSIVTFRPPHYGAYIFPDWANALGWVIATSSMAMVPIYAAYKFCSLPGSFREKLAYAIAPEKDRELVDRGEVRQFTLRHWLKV
Sequence of Insulin receptor (P15127 27-759 limits assumed): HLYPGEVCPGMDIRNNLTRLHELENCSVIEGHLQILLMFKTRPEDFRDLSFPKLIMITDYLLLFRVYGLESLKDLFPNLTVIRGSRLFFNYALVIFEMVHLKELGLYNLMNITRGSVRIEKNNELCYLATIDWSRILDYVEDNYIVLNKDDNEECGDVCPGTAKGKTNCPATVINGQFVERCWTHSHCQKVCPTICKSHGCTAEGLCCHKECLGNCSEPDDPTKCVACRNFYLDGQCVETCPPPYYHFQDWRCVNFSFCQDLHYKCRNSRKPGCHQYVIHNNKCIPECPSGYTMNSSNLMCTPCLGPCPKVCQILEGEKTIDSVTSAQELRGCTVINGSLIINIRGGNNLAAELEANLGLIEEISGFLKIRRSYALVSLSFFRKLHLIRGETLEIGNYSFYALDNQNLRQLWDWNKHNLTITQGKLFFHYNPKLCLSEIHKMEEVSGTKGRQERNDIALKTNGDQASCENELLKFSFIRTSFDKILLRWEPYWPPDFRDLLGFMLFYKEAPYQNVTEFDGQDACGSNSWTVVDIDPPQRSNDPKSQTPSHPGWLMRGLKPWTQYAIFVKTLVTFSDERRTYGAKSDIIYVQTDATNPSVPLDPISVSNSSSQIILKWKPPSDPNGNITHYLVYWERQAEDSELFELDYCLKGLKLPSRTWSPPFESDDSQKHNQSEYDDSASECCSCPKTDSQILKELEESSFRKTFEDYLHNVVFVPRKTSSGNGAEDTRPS
Sequence of Insulin receptor (P15127 764-1383 limits assumed): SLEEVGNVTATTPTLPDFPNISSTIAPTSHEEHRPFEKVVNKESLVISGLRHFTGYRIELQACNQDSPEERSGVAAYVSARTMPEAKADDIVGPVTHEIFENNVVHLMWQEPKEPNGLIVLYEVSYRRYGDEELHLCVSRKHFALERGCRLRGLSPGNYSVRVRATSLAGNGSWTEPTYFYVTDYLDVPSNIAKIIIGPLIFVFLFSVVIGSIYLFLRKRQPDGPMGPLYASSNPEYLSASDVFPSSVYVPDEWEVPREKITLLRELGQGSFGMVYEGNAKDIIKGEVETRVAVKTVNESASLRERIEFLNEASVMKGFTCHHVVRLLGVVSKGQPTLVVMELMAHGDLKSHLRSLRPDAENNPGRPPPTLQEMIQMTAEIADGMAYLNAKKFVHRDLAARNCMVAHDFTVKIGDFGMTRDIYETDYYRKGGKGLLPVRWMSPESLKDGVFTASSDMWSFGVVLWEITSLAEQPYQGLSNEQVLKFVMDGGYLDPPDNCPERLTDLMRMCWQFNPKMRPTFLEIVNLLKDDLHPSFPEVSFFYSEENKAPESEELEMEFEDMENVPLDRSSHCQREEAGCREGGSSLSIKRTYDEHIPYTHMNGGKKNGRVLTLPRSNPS
Sequence of Matrix metalloproteinase-9 (P14780 whole entry): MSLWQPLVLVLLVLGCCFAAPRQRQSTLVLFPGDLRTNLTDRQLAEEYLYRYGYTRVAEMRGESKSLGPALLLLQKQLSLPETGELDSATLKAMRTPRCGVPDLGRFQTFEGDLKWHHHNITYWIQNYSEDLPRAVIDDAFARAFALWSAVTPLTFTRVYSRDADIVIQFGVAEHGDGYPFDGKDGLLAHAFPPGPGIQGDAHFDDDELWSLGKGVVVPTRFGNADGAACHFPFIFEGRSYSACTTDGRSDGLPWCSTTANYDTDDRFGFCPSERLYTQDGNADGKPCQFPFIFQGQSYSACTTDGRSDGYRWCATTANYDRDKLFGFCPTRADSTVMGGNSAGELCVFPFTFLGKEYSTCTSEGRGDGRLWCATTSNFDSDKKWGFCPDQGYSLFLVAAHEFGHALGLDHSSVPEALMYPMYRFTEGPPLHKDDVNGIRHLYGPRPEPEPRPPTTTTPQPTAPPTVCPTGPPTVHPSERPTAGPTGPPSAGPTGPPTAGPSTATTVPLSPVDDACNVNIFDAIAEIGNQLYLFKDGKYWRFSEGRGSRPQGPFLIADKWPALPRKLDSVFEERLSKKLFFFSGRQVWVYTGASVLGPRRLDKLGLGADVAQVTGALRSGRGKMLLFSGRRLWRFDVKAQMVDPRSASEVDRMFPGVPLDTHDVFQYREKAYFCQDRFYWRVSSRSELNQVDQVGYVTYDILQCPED

Compound | IC50 ([1]; insect cells) | IC50 [2] | IC50 [3] | IC50 [4] | IC50 ([5]; cho-k1) | IC50 [6] | IC50 ([1]; read-out: IC50) [nM] | IC50 ([5]; read-out: IC50) [nM] | Ki ([5]; read-out: Ki) [nM] | IC50 ([1]; insect cells, read-out: IC50) [nM] | Ki [2] | Ki [3] | Ki [4] | Ki ([5]; cho-k1) | Ki [6]
COCCc1ccc(OCC(O)CNC(C)C)cc1 (stereo unspecified) [METOPROLOL] | Not Active | Not Active | Not Active | Not Active | Not Active |  |  |  |  |  |  |  |  |  | 
COc1cc2nc(N3CCN(C(=O)C4COc5ccccc5O4)CC3)nc(N)c2cc1OC (stereo unspecified) [DOXAZOSIN] | Not Active | Not Active | Not Active | Not Active |  |  |  |  |  |  |  |  |  |  | 
NCCCCCC(=O)O [AMINOCAPROIC ACID] | Not Active | Not Active | Not Active | Not Active | Not Active | Not Active |  |  |  |  |  |  |  |  | 
CC(C)(C)NCC(O)c1cc(Cl)c(N)c(Cl)c1 (stereo unspecified) [CLENBUTEROL] | Not Active | Not Active | Not Active | Not Active | Not Active |  |  |  |  |  |  |  |  |  | 
CCCN1C[C@H](CSC)C[C@@H]2c3cccc4[nH]cc(c34)C[C@H]21 [PERGOLIDE] | Not Active | Not Active | Not Active | Not Active | Not Active | Not Active |  |  |  |  |  |  |  |  | 
CN(C)C(=O)Oc1cc(OC(=O)N(C)C)cc(C(O)CNC(C)(C)C)c1 (stereo unspecified) [BAMBUTEROL] | Not Active | Not Active | Not Active | Not Active | Not Active | Not Active |  |  |  |  |  |  |  |  | 
c1ccc(Nc2ccc(Nc3ccccc3)cc2)cc1 | Not Active | Not Active | Not Active | Not Active | Not Active | Not Active |  |  |  |  |  |  |  |  | 
Cc1cc(C(C#N)c2ccc(Cl)cc2)c(Cl)cc1NC(=O)c1cc(I)cc(I)c1O (stereo unspecified) [CLOSANTEL] |  | Not Active | Not Active | Not Active |  | Not Active | 564 | 4800 | 3800 |  |  |  |  |  | 
Cc1ccc2cc3c(ccc4ccccc43)c3c2c1CC3 [3-METHYLCHOLANTHRENE] | Not Active | Not Active | Not Active | Not Active | Not Active | Not Active |  |  |  |  |  |  |  |  | 
Nc1nc2c(ncn2CCC(CO)CO)c(=O)[nH]1 [PENCICLOVIR] | Not Active | Not Active | Not Active | Not Active | Not Active | Not Active |  |  |  |  |  |  |  |  | 
CC1Cc2ccccc2N1NC(=O)c1ccc(Cl)c(S(N)(=O)=O)c1 (stereo unspecified) [INDAPAMIDE] | Not Active | Not Active | Not Active | Not Active | Not Active | Not Active |  |  |  |  |  |  |  |  | 
Cc1ccc(-c2cc(C(F)(F)F)nn2-c2ccc(S(N)(=O)=O)cc2)cc1 [CELECOXIB] | Not Active | Not Active | Not Active | Not Active |  | Not Active |  | 2430 | 1930 |  |  |  |  |  | 
CCCCc1nc(Cl)c(CO)n1Cc1ccc(-c2ccccc2-c2nnn[nH]2)cc1 [LOSARTAN] | Not Active | Not Active | Not Active | Not Active | Not Active | Not Active |  |  |  |  |  |  |  |  | 
CC(NC(C)(C)C)C(=O)c1cccc(Cl)c1 (stereo unspecified) [BUPROPION] | Not Active | Not Active | Not Active | Not Active |  | Not Active |  |  |  |  |  |  |  |  | 
COc1cc2c3cc1Oc1cc(ccc1O)C[C@@H]1c4c(cc(OC)c(O)c4Oc4ccc(cc4)C[C@@H]3N(C)CC2)CC[N+]1(C)C.[Cl-] | Not Active | Not Active | Not Active | Not Active | Not Active | Not Active |  |  |  |  |  |  |  |  | 
CCC(C)n1ncn(-c2ccc(N3CCN(c4ccc(OCC5COC(Cn6cncn6)(c6ccc(Cl)cc6Cl)O5)cc4)CC3)cc2)c1=O (stereo unspecified) [ITRACONAZOLE] | Not Active | Not Active | Not Active | Not Active | Not Active | Not Active |  |  |  |  |  |  |  |  | 
CADMIUM ACETATE |  | Not Active | Not Active | Not Active | Not Active | Not Active |  |  |  | 244 | Not Active | Not Active | Not Active | Not Active | Not Active
C[C@H]1O[C@@H](O[C@H]2[C@@H](O)C[C@H](O[C@H]3[C@@H](O)C[C@H](O[C@H]4CC[C@@]5(C)[C@H](CC[C@@H]6[C@@H]5C[C@@H](O)[C@]5(C)[C@@H](C7=CC(=O)OC7)CC[C@]65O)C4)O[C@@H]3C)O[C@@H]2C)C[C@H](O)[C@@H]1O [DIGOXIN] | Not Active | Not Active | Not Active | Not Active | Not Active | Not Active |  |  |  |  |  |  |  |  | 
Cc1c2oc3c(C)ccc(C(=O)N[C@@H]4C(=O)N[C@H](C(C)C)C(=O)N5CCC[C@H]5C(=O)N(C)CC(=O)N(C)[C@@H](C(C)C)C(=O)O[C@@H]4C)c3nc-2c(C(=O)N[C@@H]2C(=O)N[C@H](C(C)C)C(=O)N3CCC[C@H]3C(=O)N(C)CC(=O)N(C)[C@@H](C(C)C)C(=O)O[C@@H]2C)c(N)c1=O [DACTINOMYCIN] (I: T[dV]P[Sar][NMeV] / II: T[dV]P[Sar][NMeV]; ester I:1-I:C, II:1-II:C; linker I:N-II:N via Actinocin(1to9)) | Not Active | Not Active | Not Active | Not Active | Not Active | Not Active |  |  |  |  |  |  |  |  | 
